Experiments:
[1] = molecular target: T1, Serine/threonine-protein kinase pim-1 (Homo sapiens, UniProt P11309); experiment: Inhibition of Pim1 after 15 mins by scintillation counting-based competition assay in presence of 100 uM [gamma33P]ATP
[2] = molecular target: Casein kinase II subunit alpha (Homo sapiens) (UniProt P68400); experiment: Inhibition of CK2alpha1 at 10 uM
[3] = molecular target: Casein kinase II subunit alpha' (Homo sapiens) (UniProt P19784); experiment: Inhibition of CK2alpha2 at 10 uM
[4] = molecular target: T2, Serine/threonine-protein kinase pim-2 (Homo sapiens, UniProt Q9P1W9); experiment: Inhibition of Pim2
[5] = molecular target: T1, Serine/threonine-protein kinase pim-1; experiment: Inhibition of Pim1 in presence of 1 uM ATP
[6] = molecular target: T2, Serine/threonine-protein kinase pim-2; experiment: Inhibition of Pim2 in presence of 1 uM ATP
[7] = Solubility at pH 2.0 after 48 hrs by HPLC; format: physicochemical; conditions: buffer
[8] = Permeability from basolateral to apical side of human Caco-2 cells at 50 uM by LC/MS-MS analysis; format: ADME, cell-based; conditions: read-out: permeability
[9] = Permeability from apical to basolateral side of human Caco-2 cells at 50 uM by LC/MS-MS analysis; format: ADME, cell-based; conditions: read-out: permeability
[10] = Metabolic stability in human liver microsomes assessed as half life by HPLC; format: ADME, Microsome
[11] = Solubility at pH 7.4 after 48 hrs by HPLC; format: physicochemical; conditions: buffer

Compound: O=C(O)c1ccc(-c2cnc3ccc(NCC4CC4)nn23)cc1
- IC50 [1]: 120 nM

Compound: COC(=O)/C=C/c1cccc(-c2cncc(N3CCCN(C)CC3)n2)c1
- inhibition [2]: 14%
- inhibition [3]: 7%
- IC50 [4]: > 8000 nM

Compound: CN1CCCN(c2cccc(-c3cccc(/C=C/C(=O)O)c3)n2)CC1
- IC50 [5]: 50 nM
- IC50 [4]: 46 nM

Compound: CN1CCCN(c2cncc(-c3cccc(/C=C/C(N)=O)c3)n2)CC1
- inhibition [2]: 42%
- inhibition [3]: 36%

Compound: NCCCCNc1cncc(-c2cccc(/C=C/C(=O)O)c2)n1
- IC50 [5]: 33 nM
- IC50 [6]: 22 nM

Compound: NCC1CCN(c2cncc(-c3cccc(/C=C/C(=O)O)c3)n2)CC1
- IC50 [4]: 17 nM

Compound: CN1CCCN(c2cncc(-c3cccc(/C=C/C(=O)O)c3)n2)CC1
- solubility at 48 h [7]: > 2000 µg/mL
- Papp B→A at 50 µM [8]: 3.01 ×10⁻⁶ cm/s
- Papp A→B at 50 µM [9]: 2.73 ×10⁻⁶ cm/s
- half-life [10]: 2.65 h
- solubility at 48 h [11]: > 2000 µg/mL

Compound: COCCCNc1cncc(-c2cccc(/C=C/C(=O)O)c2)n1
- IC50 [5]: 370 nM
- IC50 [6]: 480 nM

Compound: O=C(O)/C=C/c1cccc(-c2cncc(NCC3CCNCC3)n2)c1
- IC50 [4]: 25 nM

Compound: O=C(O)/C=C/c1cccc(-c2cncc(N3CCCNCC3)n2)c1
- IC50 [4]: 10 nM

Compound: O=C(O)/C=C/c1cccc(-c2cnccn2)c1
- IC50 [4]: 2200 nM

Reference: ChEMBL document CHEMBL1153342 (J Med Chem, 2009)
